Results as given in patent publication US11565022B2, “Therapy for post-traumatic osteoarthritis” (University of Iowa Research Foundation, priority 2015, dated 2023).

Tested on: complex I of the electron transport chain in chondrocytes
Assay: complex I activity in the presence or absence of amobarbital (FIG. 4)
Type: biochemical

CCC1(CCC(C)C)C(=O)NC(=O)NC1=O [amobarbital]
biochemical activity of complex I of the electron transport chain: directly inhibits
